The record followed here is PubChem BioAssay AID2511 (Broad Institute, 2010).

pEC50: −log10 of the molar value.

This experiment concerns human washed platelets, SFLLRN-induced P-selectin, flow cytometry. Kind of experiment: PAR1 agonist-induced platelet activation inhibition – cell-based, fluorescence, flow cytometry, human platelets, dose response (AID 2511). Particulars: retest run 2.

One may read the pEC50 as the EC50 on a negative log10 scale, so that one unit is a factor of ten.

As for `CCC(=O)Nc1cccc(NC(=O)c2ccccc2Br)c1`, the pEC50 is more than 5.52. `O=C(Nc1cccc(NC(=O)c2ccccc2Cl)c1)c1ccco1`: the negative-log EC50 (pEC50) was more than 6.00. For `CCCC(=O)Nc1cccc(NC(=O)c2ccccc2Br)c1` the value was more than 6.00.

`Cc1ccc(-n2c(N)c(C#N)c(-c3ccccc3)c(C#N)c2=O)cc1` showed a pEC50 of more than 5.52.

With `CCCCC(=O)Nc1cccc(NC(=O)c2ccccc2Br)c1`, the negative logarithm of the EC50 (pEC50) is more than 5.00.
